{"source": "patent US20160279255A1", "about": "“THERAPEUTIC COMPOSITIONS INCLUDING MODULATORS OF deltaPKC AND/OR epsilonPKC, AND USES THEREOF” (priority 2014, published 2016)", "origin": "cited, not measured here", "test_system": "several mammalian cell types", "conditions": "energy-independent manner; cited from earlier work", "data": [{"substance": "2′,6′-Dmt-D-Arg-Phe-Lys-NH2", "values": [{"measurement": "penetration of the plasma membrane", "value": "readily penetrates the plasma membrane"}]}]}
